The values below are quoted from earlier work in US10273202B2, “Nitroxyl progenitor compounds and methods of use” (The Johns Hopkins University, priority 2004, dated 2019).

Where two headings read alike, the source gives them in different places.

This data set relates to dog with congestive heart failure. Particulars: CHF dogs.
The mark [1] stands for this setting: 5-10 μg/kg/min for 15 min i.v., n=8.

As to `[Na+].[Na+].[O-][N+]([O-])=NO` [AS, Angeli's salt], under setting [1], the “Ees, % from baseline” value was “+46 ± 8%”; the “LVEDD, % from baseline” value was −3.8 ± 1%; the “LVEDP, % from baseline” value is given as −50 ± 12%; the “LVESD, % from baseline” value is on record as −3.9 ± 1%. Besides, under setting [1], the “LVESP, % from baseline” value was −13 ± 2%; the “RT, % from baseline” value is on record as −12 ± 5%; the “Tau, % from baseline” value was −18 ± 2%. Also, where the note is “5-10 μg/kg/min, + volume”, the “Ees, % from baseline” value was “+37 ± 5%”; the “LVEDD, % from baseline” value was −1.7 ± 1%; the “LVEDP, % from baseline” value is −34 ± 19%; the “LVESD, % from baseline” value is recorded as −3.0 ± 0.5%. Moreover, for the setting “5-10 μg/kg/min, + volume”, the “LVESP, % from baseline” value is reported as −9.9 ± 2%; the “RT, % from baseline” value is on record as −14 ± 4%; the “Tau, % from baseline” value was −15 ± 3%.
